Results: PMC6987146, “Potent inhibition of HIV replication in primary human cells by novel synthetic polyketides inspired by Aureothin” (Scientific Reports, 2020)

How the values were obtained:
HIV-1LAI [1] = test: EASY-HIT assay: infectious virus production by LC5-RIC reporter cells exposed to HIV-1LAI; format: cell-based
Method: To identify natural compounds with anti-HIV activity we screened a collection of 10,000 natural compounds: Anti-HIV activity was evaluated by determining compound effects on infectious virus production by LC5-RIC cells which are highly susceptible for HIV and contain a DsRed1-encoding reporter gene activated by HIV-infection[6]–[8]. For screening, cultures of LC5-RIC reporter cells were first exposed to virus in the presence of the compound (first-step of the assay). Subsequently, supernatants of these cultures were transferred to secondary plates with uninfected LC5-RIC cells. The fluorescent signal of the cultures in the secondary plates served as a measure of compound effects on infectious virus production.
Anti-HIV activities of compounds were profiled in LC5-RIC cells with the EASY-HIT assay as described in[6]. Briefly, LC5-RIC cells were first exposed to virus and compounds (first step of the assay). Compound effects on infectious virus production were determined by transferring aliquots of supernatants of compound-treated cultures to secondary plates and measurement of fluorescent signal intensities in secondary plates after 72 h (second step of the assay). Fluorescent signal intensities determined for compound-treated cultures were normalized to those determined for untreated virus-exposed cultures.

HIV-2 = tested on: HIV-2; design: method as in PMID 22293827, PMID 10465070; conditions: virus intrinsically resistant; cited from earlier work
[2] = tested on: integrated proviral HIV-1 DNA; test: Integrated proviral HIV-1 DNA by Alu-PCR in LC5-RIC cells; format: cell-based; conditions: HIV-1LAI, 48 h, concentrations >2x IC90, normalized to DMSO
Method: Quantitative analysis of integrated copies of HIV proviral DNA by Alu-PCR was performed essentially as described in[46]. Briefly, LC5-RIC cells seeded at a density of 100,000 cells per well in 12-well plates and incubated for 24 h were exposed to test compounds and HIV-1LAI virus inoculum at an MOI of 0.5 and incubated for further 48 h at 37 °C, 5% CO2. Subsequently, cells were harvested and genomic DNA (gDNA) was extracted using the QIAamp DNA Mini Kit (QIAGEN) according to the manufacturer’s protocol. The relative amount of integrated proviral HIV-1 DNA was determined by two-step Alu-PCR[46]. The relative amounts of integrated proviral HIV-1 DNA in treated versus untreated samples were calculated by the 2^(−ΔΔCt) method, with ΔCT values representing CT (HIV) - CT (β-globin) for each sample and ΔΔCT values representing values of treated samples normalized to untreated samples.

HIV-1LAI [3] = test: Inhibition of HIV infection of human PBMCs (infectious virus production, read out on LC5-RIC cells); format: cell-based; conditions: human PBMCs exposed to HIV-1LAI, mean ± SD
Method: To evaluate anti-HIV efficacies of test compounds in primary human target cells, stimulated PBMCs were seeded in 96-well plates at a density of 500,000 cells per well, different #7concentrations of the compound (serial dilutions) and virus inoculum (MOI of 0.5) added to the PBMCs and cultures incubated for 48 h. Infectious virus production was quantified by transferring 35 µl of supernatant from the PBMC cultures to LC5-RIC cells, seeded in black 96-well plates one day earlier. LC5-RIC cultures were then incubated for 72 h and analysed for DsRed1 reporter expression and anti-HIV activity calculated as described for the EASY-HIT assay.

LC5-RIC cells = test: CellTiter-Glo 2.0 cell viability assay in LC5-RIC cells; format: cell-based
Method: The following assays were used to profile cell safety of compound treatment in HIV-exposed cultures (LC5-RIC or PBMC): (1) CellTox^TM Green Cytotoxicity Assay, Promega, measures binding of a fluorescent dye to DNA of cells with impaired membrane integrity; (2) CellTiter-Glo® 2.0 Assay, Promega, which measures the amount of ATP in viable cells after lysis using an assay with luminescence read-out. Cells were plated into black 96-well plates followed by overnight incubation at 37 °C, 5% CO2. Compounds dissolved in DMSO were screened at multiple concentrations from 0.6 to 10,000 nM at a final DMSO concentration of 0.04% followed by additional 48 h incubation. Both assays were performed according to manufacturer’s recommendations and consecutively in the above mentioned order. Cells were washed once with PBS between the assays.

HIV-1LAI [4] = test: Photostability of anti-HIV activity (24 h illumination vs dark, EASY-HIT read-out); format: cell-based; conditions: 24 h illumination; compounds at IC90; LC5-RIC
Method: Figure 1 Profiling of photostability of anti-HIV activity of Aureothin and synthetic Aureothin-derivatives. Anti-HIV activity of compound samples illuminated for 24 h were normalised to anti-HIV activity of samples of the same compound kept in the dark. Anti-HIV activity was measured by quantifying the amounts of infectious virus produced by HIV-1LAI exposed LC5-RIC cells treated with compounds at IC90 concentrations (Supplementary Table S1). […] Shown are means of at least three independent experiments with biological triplicates (n ≥ 3; m = 3) and the standard error of the mean (SEM) indicated.
LC5-RIC cells were plated as described for the EASY-HIT assay. […] Plates were incubated either in the dark or under constant illumination with a commercially available desk lamp (2X Philips Master PL-S-9W/840/2 P, 30 cm between light source and compounds) for 24 h at room temperature. For analysis of anti-HIV activity, compound samples were transferred to LC5-RIC cells and their anti-HIV activity determined by measuring compound effects on infectious virus production with the EASY-HIT assay. Relative photostability was calculated by normalizing the anti-HIV activity of the illuminated compounds to the antiviral activity of compounds kept in the dark.

[5] = Human immunodeficiency virus 1, LC5-RIC cells exposed to HIV-1LAI, infectious virus production, mean ± SD, read-out: IC50, half maximal inhibitory concentration
[6] = Human immunodeficiency virus 1, read-out: IC50, half maximal inhibitory concentration

| Compound | IC50 (HIV-1LAI [1]; [5]) | activity against HIV-2 (HIV-2) | reduction of levels of integrated proviral DNA [2] | IC50 (HIV-1LAI [1]; [6]) | other results |
| --- | --- | --- | --- | --- | --- |
| COc1oc([C@H]2C/C(=C/C(C)=C/C(C)=C/C(C)=C/c3ccc([N+](=O)[O-])cc3)CO2)c(C)c(=O)c1C [Neoaureothin] | 2.2 ± 0.06 nM |  |  |  |  |
| Enfuvirtide |  | ineffective against HIV-2 |  |  |  |
| O=C1Nc2ccc(Cl)cc2[C@@](C#CC2CC2)(C(F)(F)F)O1 [Efavirenz] | ~1 nM | ineffective against HIV-2 | > 90% |  |  |
| CC(C)(C)NC(=O)[C@@H]1C[C@@H]2CCCC[C@@H]2CN1C[C@@H](O)[C@H](Cc1ccccc1)NC(=O)[C@H](CC(N)=O)NC(=O)c1ccc2ccccc2n1 [Saquinavir] |  |  |  | ~10 nM |  |
| C[C@@H]1CCO[C@H]2Cn3cc(C(=O)NCc4ccc(F)cc4F)c(=O)c(O)c3C(=O)N12 [Dolutegravir] |  |  | > 90% | ~1 nM |  |
| COc1oc([C@H]2C/C(=C/C(C)=C/c3ccc([N+](=O)[O-])cc3)CO2)c(C)c(=O)c1C [compound 1, Aureothin] |  |  |  |  | IC50 (HIV-1LAI [3]; read-out: IC50, half maximal HIV-inhibitory concentration): 11.7 ± 1.37 nM; IC90 (HIV-1LAI [3]; read-out: IC90, 90% HIV-inhibitory concentration): 45 ± 3.33 nM; CC50 (LC5-RIC cells): > 10000 nM; IC50 (HIV-1LAI [1]; LC5-RIC cells exposed to HIV-1LAI, infectious virus production, mean ± SD, read-out: IC50, half maximal inhibitory concentration): 5.3 ± 0.4 nM; IC90 (HIV-1LAI [1]; read-out: IC90, 90% inhibitory concentration, LC5-RIC cells exposed to HIV-1LAI, infectious virus production, mean ± SD): 26.8 ± 2.54 nM; loss of anti-HIV-activity compared to the non-illuminated controls (HIV-1LAI [4]): ≥ 50% |
